Measurements: the supplement of paper PMC10307832

Assays:
Experiment in all cases: relative viability (nuclei count vs DMSO), 5 days (fraction); higher = more cells survive
[1] = test system: NCI-H2023
In short: (§1)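 After 5 days of treatment, lung cancer cells in 1536-well plates were fixed and stained in a single step (final 0.05% Triton X-100, 1% formaldehyde, 1 ug/ml Hoechst) and their nuclei counted on 4× images. Treatment had been applied by pin tool the day after seeding as one drug alone or as a fixed anchor-drug dose with five library-drug doses (not always all listed) in √10 steps. Relative viability is the nuclei count of treated wells divided by that of vehicle wells, and values are medians of duplicate plates.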

[2] = test system: 201T
In short: as §1

[3] = test system: NCI-H650
In short: as §1

[4] = test system: HCC-15
In short: as §1

[5] = test system: ChaGo-K-1
In short: as §1

[6] = test system: NCI-H1734
In short: as §1

[7] = test system: HCC-44
In short: as §1

[8] = test system: SW 1573
In short: as §1

[9] = test system: NCI-H460
In short: as §1

[10] = test system: NCI-H1993
In short: as §1

[11] = test system: NCI-H441
In short: as §1

[12] = test system: LOU-NH91
In short: as §1

[13] = test system: LCLC-97TM1
In short: as §1

[14] = test system: LCLC-103H
In short: as §1

[15] = test system: NCI-H1650
In short: as §1

[16] = test system: A-427
In short: as §1

[17] = test system: RERF-LC-KJ
In short: as §1

[18] = test system: COR-L23
In short: as §1

[19] = test system: HARA
In short: as §1

[20] = test system: NCI-H2126
In short: as §1

[21] = test system: NCI-H2009
In short: as §1

O=C(O)CCCCC(CCSCc1ccccc1)SCc1ccccc1 (centres undefined) [CPI-613] + CCNC(=O)c1noc(-c2cc(C(C)C)c(O)cc2O)c1-c1ccc(CN2CCOCC2)cc1 [Luminespib] (partner 0.01 µM)
relative viability ([1]; first compound 5 µM): 0.791 | relative viability ([1]; first compound 15.81 µM): 0.692 | relative viability ([1]; first compound 50 µM): 0.736 | relative viability ([1]; first compound 158.11 µM): 0.052 | relative viability ([1]; first compound 500 µM): 0.0128 | relative viability ([2]; first compound 5 µM): 1.05 | relative viability ([2]; first compound 15.81 µM): 0.973 | relative viability ([2]; first compound 50 µM): 1.01 | relative viability ([2]; first compound 158.11 µM): 0.258 | relative viability ([2]; first compound 500 µM): 0.0468 | relative viability ([3]; first compound 5 µM): 0.811 | relative viability ([3]; first compound 15.81 µM): 0.732 | relative viability ([3]; first compound 50 µM): 0.852 | relative viability ([3]; first compound 158.11 µM): 0.69 | relative viability ([3]; first compound 500 µM): 0.613 | relative viability ([4]; first compound 5 µM): 0.297 | relative viability ([4]; first compound 15.81 µM): 0.424 | relative viability ([4]; first compound 50 µM): 0.304 | relative viability ([4]; first compound 158.11 µM): 0.0775 | relative viability ([4]; first compound 500 µM): 0.0498 | relative viability ([5]; first compound 5 µM): 0.533 | relative viability ([5]; first compound 15.81 µM): 0.61 | relative viability ([5]; first compound 50 µM): 0.596 | relative viability ([5]; first compound 158.11 µM): 0.204 | relative viability ([5]; first compound 500 µM): 0.11 | relative viability ([6]; first compound 5 µM): 0.197 | relative viability ([6]; first compound 15.81 µM): 0.194 | relative viability ([6]; first compound 50 µM): 0.164 | relative viability ([6]; first compound 158.11 µM): 0.165 | relative viability ([6]; first compound 500 µM): 0.107 | relative viability ([7]; first compound 5 µM): 0.964 | relative viability ([7]; first compound 15.81 µM): 0.939 | relative viability ([7]; first compound 50 µM): 1.04 | relative viability ([7]; first compound 158.11 µM): 0.495 | relative viability ([7]; first compound 500 µM): 0.121 | relative viability ([8]; first compound 5 µM): 0.254 | relative viability ([8]; first compound 15.81 µM): 0.295 | relative viability ([8]; first compound 50 µM): 0.138 | relative viability ([8]; first compound 158.11 µM): 0.0967 | relative viability ([8]; first compound 500 µM): 0.0725 | relative viability ([9]; first compound 5 µM): 0.0325 | relative viability ([9]; first compound 15.81 µM): 0.0279 | relative viability ([9]; first compound 50 µM): 0.0372 | relative viability ([9]; first compound 158.11 µM): 0.0145 | relative viability ([9]; first compound 500 µM): 0.0162 | relative viability ([10]; first compound 5 µM): 0.799 | relative viability ([10]; first compound 15.81 µM): 0.296 | relative viability ([10]; first compound 50 µM): 0.917 | relative viability ([10]; first compound 158.11 µM): 0.611 | relative viability ([10]; first compound 500 µM): 0.437 | relative viability ([11]; first compound 5 µM): 0.36 | relative viability ([11]; first compound 15.81 µM): 0.38 | relative viability ([11]; first compound 50 µM): 0.289 | relative viability ([11]; first compound 158.11 µM): 0.124 | relative viability ([11]; first compound 500 µM): 0.0495 | relative viability ([12]; first compound 5 µM): 0.344 | relative viability ([12]; first compound 15.81 µM): 0.325 | relative viability ([12]; first compound 50 µM): 0.323 | relative viability ([12]; first compound 158.11 µM): 0.309 | relative viability ([12]; first compound 500 µM): 0.34 | relative viability ([13]; first compound 5 µM): 0.641 | relative viability ([13]; first compound 15.81 µM): 0.71 | relative viability ([13]; first compound 50 µM): 0.737 | relative viability ([13]; first compound 158.11 µM): 0.188 | relative viability ([13]; first compound 500 µM): 0.0176 | relative viability ([14]; first compound 5 µM): 0.924 | relative viability ([14]; first compound 15.81 µM): 0.825 | relative viability ([14]; first compound 50 µM): 0.846 | relative viability ([14]; first compound 158.11 µM): 0.811 | relative viability ([14]; first compound 500 µM): 0.269 | relative viability ([15]; first compound 5 µM): 0.213 | relative viability ([15]; first compound 15.81 µM): 0.224 | relative viability ([15]; first compound 50 µM): 0.194 | relative viability ([15]; first compound 158.11 µM): 0.168 | relative viability ([15]; first compound 500 µM): 0.0166 | relative viability ([16]; first compound 5 µM): 0.85 | relative viability ([16]; first compound 15.81 µM): 0.938 | relative viability ([16]; first compound 50 µM): 0.761 | relative viability ([16]; first compound 158.11 µM): 0.512 | relative viability ([16]; first compound 500 µM): 0.126 | relative viability ([17]; first compound 5 µM): 1.28 | relative viability ([17]; first compound 15.81 µM): 1.22 | relative viability ([17]; first compound 50 µM): 1.23 | relative viability ([17]; first compound 158.11 µM): 0.235 | relative viability ([17]; first compound 500 µM): 0.198 | relative viability ([18]; first compound 5 µM): 0.58 | relative viability ([18]; first compound 15.81 µM): 0.61 | relative viability ([18]; first compound 50 µM): 0.664 | relative viability ([18]; first compound 158.11 µM): 0.108 | relative viability ([18]; first compound 500 µM): 0.0308 | relative viability ([19]; first compound 15.81 µM): 0.635 | relative viability ([19]; first compound 50 µM): 0.757 | relative viability ([19]; first compound 158.11 µM): 0.297 | relative viability ([19]; first compound 500 µM): 0.0024 | relative viability ([20]; first compound 5 µM): 0.906 | relative viability ([20]; first compound 15.81 µM): 0.83 | relative viability ([20]; first compound 50 µM): 0.85 | relative viability ([20]; first compound 158.11 µM): 0.223 | relative viability ([20]; first compound 500 µM): 0.053 | relative viability ([21]; first compound 5 µM): 1.06 | relative viability ([21]; first compound 15.81 µM): 0.954 | relative viability ([21]; first compound 50 µM): 0.936 | relative viability ([21]; first compound 158.11 µM): 0.179 | relative viability ([21]; first compound 500 µM): 0.012
